Experimental data published in patent US11629139B2 (priority 2017, dated 2023).

Tested on: not given
Test: not given
Settings: mouse, in vivo, po, 50 mg/kg

Structure (SMILES)	Cmax [µM]
Nc1ccc(Cl)cc1CN1CCN(C(=O)CNC(=O)C2CC23CCC(F)(F)CC3)CC1 (single isomer, unassigned; (-)) [(−)-1413]	19.5
CS(=O)(=O)c1ccc(CNc2ccc(Cl)cc2CN2CCN(C(=O)CNC(=O)C3CC34CCC(F)(F)CC4)CC2)cc1 (single isomer, unassigned; (-)) [(−)-1503]	7.4

Tested on: vesicular stomatitis virus particles (VSV) pseudotyped with EboV Zaire GP
Test: microbe, parasite or virus in culture
Format: cell-based
Settings: Vesicular stomatitis virus

Structure (SMILES)	IC50 [nM]
O=C(CC1CCC(F)(F)CC1)NCC(=O)N1CCN(Cc2cc(Cl)ccc2NC(=O)C2CC2)CC1 [Compound 1378, N-(4-Chloro-2-((4-((2-(4,4-difluorocyclohexyl)acetyl)glycyl)piperazin-1-yl)methyl)phenyl)cyclopropanecarboxamide]	> 2000
O=C(CC12CC3CC(CC(O)(C3)C1)C2)NCC(=O)N1CCN(Cc2ccccc2OCc2ccc(Br)cc2)CC1 [Compound 1244]	500
O=C(CC1CCC(F)(F)CC1)NCC(=O)N1CCN(Cc2cc(Br)ccc2Cl)CC1 [Compound 1374, N-(2-(4-(5-Bromo-2-chlorobenzyl)piperazin-1-yl)-2-oxoethyl)-2-(4,4-difluorocyclohexyl)acetamide]	> 2000
COC(=O)c1ccc(COc2ccccc2CN2CCN(C(=O)CNC(=O)CC(C)(C)C(F)(F)F)CC2)cc1 [Compound 1278, Methyl 4-((2-((4-((4,4,4-trifluoro-3,3-dimethylbutanoyl)glycyl)piperazin-1-yl)methyl)phenoxy)methyl)benzoate]	> 2000
CS(=O)(=O)c1ccc(Oc2cc(F)cc(CN3CCN(C(=O)CNC(=O)CC4CCC(F)(F)CC4)CC3)c2)cc1 [Compound 1460]	> 1000
O=C(CC1CCC(F)(F)CC1)NCC(=O)N1CCN(Cc2cc(Cl)ccc2OC(F)(F)F)CC1 [Compound 1372]	> 2000
COC(=O)c1ccc(COc2ccccc2CN2CCN(C(=O)CNC(=O)C3C4CC(F)(F)CC43)CC2)cc1 (stereo not shown) [Compound 1344, Methyl 4-((2-((4-((3,3-difluorobicyclo[3.1.0]hexane-6-carbonyl)glycyl)piperazin-1-yl)methyl)phenoxy)methyl)benzoate]	170
COC(=O)c1ccc(COc2ccccc2CN2CCN(C(=O)CNC(=O)NC3CCC(F)(F)CC3)CC2)cc1 [Compound 1320, Methyl 4-((2-((4-(((4,4-difluorocyclohexyl)carbamoyl)glycyl)piperazin-1-yl)methyl)phenoxy)methyl)benzoate]	> 2000
COC(=O)c1cccc(-c2ccc(O)c(CN3CCN(C(=O)CNC(=O)CC45CC6CC(CC(C6)C4)C5)CC3)c2)c1 [Compound 1310, Methyl 3′-((4-((2-((1R,3R,5S)-adamantan-1-yl)acetyl)glycyl)piperazin-1-yl)methyl)-4′-hydroxy-[1,1′-biphenyl]-3-carboxylate]	310
Nc1ccc(Cl)cc1CN1CCN(C(=O)CNC(=O)C2CC23CCCC3)CC1 (stereo not shown) [Compound 1806, N-(2-(4-(2-Amino-5-chlorobenzyl)piperazin-1-yl)-2-oxoethyl)spiro[2.4]heptane-1-carboxamide]	240
Nc1ccc(CN2CCN(C(=O)CNC(=O)CC3CCC(F)(F)CC3)CC2)cc1Cl [Compound 1387, N-(2-(4-(4-Amino-3-chlorobenzyl)piperazin-1-yl)-2-oxoethyl)-2-(4,4-difluorocyclohexyl)acetamide]	> 5000
C#Cc1ccc(F)c(CN2CCN(C(=O)CNC(=O)CC34CC5CC(CC(C5)C3)C4)CC2)c1 [Compound 1352, 2-((1R,3R,5S)-Adamantan-1-yl)-N-(2-(4-(5-ethynyl-2-fluorobenzyl)piperazin-1-yl)-2-oxoethyl)acetamide]	1700
[2H]C([2H])(c1cc(Cl)ccc1NCc1ccc(C#N)cn1)N1CCN(C(=O)CNC(=O)[C@@H]2CC23CCC(F)(F)CC3)CC1 [Compound 1584]	30
COC(=O)c1ccc(COc2ccccc2CN2CCN(C(=O)CNC(=O)OC3CCC(F)(F)CC3)CC2)cc1 [Compound 1319, Methyl 4-((2-((4-((((4,4-difluorocyclohexyl)oxy)carbonyl)glycyl)piperazin-1-yl)methyl)phenoxy)methyl)benzoate]	310
CS(=O)(=O)c1ccc(COc2ccc(F)cc2CN2CCN(C(=O)CNC(=O)CC34CC5CC(CC(C5)C3)C4)CC2)cc1 [Compound 1443]	4.5
CNC(=O)c1ccc(COc2ccccc2CN2CCN(C(=O)CNC(=O)CC34CC5CC(CC(C5)C3)C4)CC2)cc1 [Compound 1801]	2100
COC(=O)c1ccc(CCc2ccccc2CN2CCN(C(=O)CNC(=O)CC34CC5CC(CC(C5)C3)C4)CC2)cc1 [Compound 1123]	20
CCC1(CC)CC1C(=O)NCC(=O)N1CCN(Cc2cc(Cl)ccc2O)CC1 (stereo not shown) [Compound 1399, N-(2-(4-(5-Chloro-2-hydroxybenzyl)piperazin-1-yl)-2-oxoethyl)-2,2-diethylcyclopropane-1-carboxamide]	220
CC(=O)N1CCC(Oc2cc(F)cc(CN3CCN(C(=O)CNC(=O)C4CC45CCC(F)(F)CC5)CC3)c2)CC1 (stereo not shown) [Compound 1442]	600

Structure (SMILES)	IC50 [nM]
COC(=O)c1ccc(COc2ccc(OC)cc2CN2CCN(C(=O)CNC(=O)CC34CC5CC(CC(C5)C3)C4)CC2)cc1 [Compound 1115]	1400
Nc1c(Cl)cc(Cl)cc1CN1CCN(C(=O)CNC(=O)CC2CCC(F)(F)CC2)CC1 [Compound 1381, N-(2-(4-(2-Amino-3,5-dichlorobenzyl)piperazin-1-yl)-2-oxoethyl)-2-(4,4-difluorocyclohexyl)acetamide]	> 2000
NC(=O)Nc1ccc(Cl)cc1CN1CCN(C(=O)CNC(=O)CC2CCC(F)(F)CC2)CC1 [Compound 1361, N-(2-(4-(5-Chloro-2-ureidobenzyl)piperazin-1-yl)-2-oxoethyl)-2-(4,4-difluorocyclohexyl)acetamide]	> 2000
O=C(CC12CC3CC(CC(C3)C1)C2)NCC(=O)N1CCN(Cc2cc(Cl)cc(Cl)c2Cl)CC1 [Compound 1350, 2-((1R,3R,5S)-adamantan-1-yl)-N-(2-oxo-2-(4-(2,3,5-trichlorobenzyl)piperazin-1-yl)ethyl)acetamide]	800
COC(=O)c1ccc(COc2ccc(Cl)cc2CN2CCN(C(=O)CNC(=O)C3C4CC(F)(F)CC43)CC2)cc1 (stereo not shown) [Compound 1346, Methyl 4-((4-chloro-2-((4-((3,3-difluorobicyclo[3.1.0]hexane-6-carbonyl)glycyl)piperazin-1-yl)methyl)phenoxy)methyl)benzoate]	200
O=C(CC12CC3CC(CC(C3)C1)C2)NCC(=O)N1CCN(Cc2cc(Cl)c(F)cc2F)CC1 [Compound 1307, 2-((1R,3R,5S)-Adamantan-1-yl)-N-(2-(4-(5-chloro-2,4-difluorobenzyl)piperazin-1-yl)-2-oxoethyl)acetamide]	370
O=C(CC1CCC(F)(F)CC1)NCC(=O)N1CCN(Cc2cc(Br)ccc2F)CC1 [Compound 1370, N-(2-(4-(5-Bromo-2-fluorobenzyl)piperazin-1-yl)-2-oxoethyl)-2-(4,4-difluorocyclohexyl)acetamide]	~2200
NC(=O)c1ccc(Br)cc1CN1CCN(C(=O)CNC(=O)CC23CC4CC(CC(C4)C2)C3)CC1 [Compound 1364, 2-((4-((2-((1R,3R,5S)-Adamantan-1-yl)acetyl)glycyl)piperazin-1-yl)methyl)-4-bromobenzamide]	1900
O=C(CC12CC3CC(C1)C(C3)C2)NCC(=O)N1CCN(Cc2cc(F)ccc2OCc2ccc3nonc3c2)CC1 [Compound 1444]	25
Nc1ccc(C2CC2)cc1CN1CCN(C(=O)CNC(=O)C2CC23CCC(F)(F)CC3)CC1 (stereo not shown) [Compound 1397]	2400 to 4200
O=C(CC1CCC(F)(F)CC1)NCC(=O)N1CCN(Cc2cc(Cl)ccc2NS(=O)(=O)C2CC2)CC1 [Compound 1379, N-(2-(4-(5-Chloro-2-(cyclopropanesulfonamido)benzyl)piperazin-1-yl)-2-oxoethyl)-2-(4,4-difluorocyclohexyl)acetamide]	~2200
Nc1cc(Br)cc(CN2CCN(C(=O)CNC(=O)CC34CC5CC(CC(C5)C3)C4)CC2)c1 [Compound 1341, 2-((1R,3R,5S)-Adamantan-1-yl)-N-(2-(4-(3-amino-5-bromobenzyl)piperazin-1-yl)-2-oxoethyl)acetamide]	320
COc1ccc(Cl)cc1CN1CCN(C(=O)CNC(=O)CC2CCC(F)(F)CC2)CC1 [Compound 1384, N-(2-(4-(5-Chloro-2-methoxybenzyl)piperazin-1-yl)-2-oxoethyl)-2-(4,4-difluorocyclohexyl)acetamide]	330
O=C(Nc1ncc(Cl)cc1CN1CCN(C(=O)CNC(=O)C2CC23CCC(F)(F)CC3)CC1)NC1CC1 (stereo not shown) [Compound 1393, N-(2-(4-((5-Chloro-2-(3-cyclopropylureido)pyridin-3-yl)methyl)piperazin-1-yl)-2-oxoethyl)-6,6-difluorospiro[2.5]octane-1-carboxamide]	> 5000
[2H]C([2H])(c1cc(Cl)ccc1NCc1ccc(S(C)(=O)=O)cn1)N1CCN(C(=O)CNC(=O)[C@@H]2CC23CCC(F)(F)CC3)CC1 [Compound 1586]	45
O=C(CC12CC3CC(CC(C3)C1)C2)NCC(=O)N1CCN(Cc2cc(F)c(F)cc2Cl)CC1 [Compound 1353, 2-((1R,3R,5S)-Adamantan-1-yl)-N-(2-(4-(2-chloro-4,5-difluorobenzyl)piperazin-1-yl)-2-oxoethyl)acetamide]	1500
Nc1cc(Cl)cc(CN2CCN(C(=O)CNC(=O)CC3CCC(F)(F)CC3)CC2)c1 [Compound 1385, N-(2-(4-(3-Amino-5-chlorobenzyl)piperazin-1-yl)-2-oxoethyl)-2-(4,4-difluorocyclohexyl)acetamide]	2200
CC(=O)N1CCC(COc2ccc(Cl)cc2CN2CCN(C(=O)CNC(=O)CC34CC5CC(CC(C5)C3)C4)CC2)CC1 [Compound 1301, N-(2-(4-(2-((1-acetylpiperidin-4-yl)methoxy)-5-chlorobenzyl)piperazin-1-yl)-2-oxoethyl)-2-((3r,5r,7r)-adamantan-1-yl)acetamide]	400

Same assay, conditions: read-out: IC50

Structure (SMILES)	IC50 [nM]
O=C(CC12CC3CC(CC(C3)C1)C2)NCC(=O)N1CCN(Cc2cc(Cl)ccc2C(F)(F)F)CC1 [Compound 1308, 2-((1R,3R,5S)-Adamantan-1-yl)-N-(2-(4-(5-chloro-2-(trifluoromethyl)benzyl)piperazin-1-yl)-2-oxoethyl)acetamide]	> 2000
